Laboratory results taken from patent publication US4792607A, “5-fluoro-3,4-dihydro-2,4-dioxo-N-(3-indolyl)-1(2H)-pyrimidinecarboxamides” (Chisso Corporation, priority 1986, dated 1988).

Key:
[1] = Acute Toxicity Test (LD50); settings: in vivo
[2] = system: Leukosis cells of P-388 mouse; test: Antitumor Effect Test (P-388 leukemia grafted into the abdomen of mice, ratio of survival days T/C); format: in vivo; settings: dosed into the abdomen successively for 5 days, P-388 in CDF1 or BDF1 mouse
Text: [Antitumor Effect Test] Leukosis cells of P-388 mouse of 1×10^6 /mouse were grafted into the abdomen of CDF1 or BDF1 mouse, and the fixed quantity of the compound of this invention was successively dosed into the abdomen for 5 days. Each 6 mice per dose level as test groups and 30~33 mice as control groups were used. [formula]

[3] = Mus musculus, P388, ip, 120 h, 30 mg/kg

Row | SMILES | LD50 [1] | response vs control in vivo at 30 mg/kg [2, 3] | response vs control in vivo at 60 mg/kg ([2]; Mus musculus, P388, ip, 120 h) | response vs control in vivo at 120 mg/kg ([2]; Mus musculus, P388, ip, 120 h) | response vs control in vivo at 15 mg/kg ([2]; Mus musculus, P388, ip, 120 h) | also measured
1 | NS(=O)(=O)c1ccc(NC(=O)NCCCCCCNC(=O)n2cc(F)c(=O)[nH]c2=O)cc1 [Experiment 20] | > 240 mg/kg | 95% | 110% | 111% | – | response vs control in vivo at 240 mg/kg ([2]; Mus musculus, P388, ip, 120 h): 112%
2 | CN(C)CCCNC(=O)NCCCCCCNC(=O)n1cc(F)c(=O)[nH]c1=O [Experiment 21] | 120 mg/kg | 142% | 120% | – | 120% | –
3 | O=C(NCCC[n+]1ccccc1)n1cc(F)c(=O)[nH]c1=O [Experiment 17, 5-Fluoro-3,4-dihydro-2,4-dioxo-N-[3-(1-pyridinio)propyl]-1(2H-pyrimidinecarboxamide chloride] | 240 mg/kg | 130% | 138% | – | – | –
4 | O=C(NCCCCCCNC(=O)n1cc(F)c(=O)[nH]c1=O)NNC(=O)c1cccnc1 [Experiment 22] | > 400 mg/kg | 113% | 113% | 128% | – | response vs control in vivo at 400 mg/kg ([2]; Mus musculus, P388, ip, 120 h): 127%
5 | O=C(NCNC(=O)n1cc(F)c(=O)[nH]c1=O)c1ccccc1 [Experiment 13] | 240 mg/kg | 117% | 132% | 147% | – | –
6 | O=C(Nc1cccs1)n1cc(F)c(=O)[nH]c1=O [Experiment 1] | > 240 mg/kg | 129% | 138% | – | – | T/C (ratio of survival days) ([2]; 30 mg/kg): 129%
7 | O=C(NCC[n+]1ccccc1)n1cc(F)c(=O)[nH]c1=O [Experiment 14, 5-Fluoro-3,4-dihydro-2,4-dioxo-N-[2-(1-pyridino)ethyl]-1(2H-pyrimidinecarboxamide chloride] | 120 mg/kg | 171% | 215% | – | 169% | –
8 | O=C(Nc1ccc[n+]([O-])c1)n1cc(F)c(=O)[nH]c1=O [Experiment 2] | 240 mg/kg | 149% | 166% | – | 127% | –
9 | O=C(NCCCCCCNC(=O)n1cc(F)c(=O)[nH]c1=O)Nc1ccccn1 [Experiment 19] | > 240 mg/kg | – | 154% | 164% | – | –
10 | O=C(NCc1c[nH]c2ccccc12)n1cc(F)c(=O)[nH]c1=O [Experiment 4] | > 400 mg/kg | 117% | 115% | 118% | – | response vs control in vivo at 400 mg/kg ([2]; Mus musculus, P388, ip, 120 h): 128%
11 | O=C(NCCCCC[n+]1ccccc1)n1cc(F)c(=O)[nH]c1=O [Experiment 16, 5-Fluoro-3,4-dihydro-2,4-dioxo-N-[5-(1-pyridinio)pentyl]-1(2H-pyrimidinecarboxamide bromide] | 60 mg/kg | 120% | – | – | 120% | response vs control in vivo at 7.5 mg/kg ([2]; Mus musculus, P388, ip, 120 h): 112%
12 | O=C(Nc1c[nH]c2ccccc12)n1cc(F)c(=O)[nH]c1=O [Experiment 3] | > 400 mg/kg | 123% | 135% | 136% | – | response vs control in vivo at 400 mg/kg ([2]; Mus musculus, P388, ip, 120 h): 153%
13 | O=C(NCCCCCCNC(=O)n1cc(F)c(=O)[nH]c1=O)Nc1cccnc1 [Experiment 18] | > 30 mg/kg | – | – | – | 139% | response vs control in vivo at 0.47 mg/kg ([2]; Mus musculus, P388, ip, 120 h, 0.47 mg/kg): 110%; response vs control in vivo at 0.94 mg/kg ([2]; Mus musculus, P388, ip, 120 h, 0.94 mg/kg): 115%; response vs control in vivo at 1.87 mg/kg ([2]; Mus musculus, P388, ip, 120 h, 1.87 mg/kg): 124%; response vs control in vivo at 3.75 mg/kg ([2]; Mus musculus, P388, ip, 120 h, 3.75 mg/kg): 131%; response vs control in vivo at 7.5 mg/kg ([2]; Mus musculus, P388, ip, 120 h): 138%
14 | O=C(NCCCCCCNC(=O)n1cc(F)c(=O)[nH]c1=O)NNC(=O)c1ccncc1 [Experiment 23] | > 240 mg/kg | 109% | 119% | 124% | – | response vs control in vivo at 240 mg/kg ([2]; Mus musculus, P388, ip, 120 h): 138%
